Reference: US8975417B2, “Pyrazolopyrrolidine derivatives and their use in the treatment of disease” (Novartis AG, priority 2013, dated 2015)

Columns and labels:
Conditions in all cases: biochemical
[1] = molecular target: His-Brd4(44-477) (Homo sapiens (Human), UniProt O60885); test: TR-FRET in-vitro binding assay for BRD4
Experimental: (§1) TR-FRET In-Vitro Binding Assays for BRD2, BRD3, and BRD4:
(§2) All assays were performed in 384-well microtiter plates. Each assay plate contained 8-point serial dilutions for 40 test compounds, plus 16 high- and 16 low controls. Liquid handling and incubation steps were done on an Innovadyne Nanodrop Express equipped with a robotic arm (Thermo CatX, Perkin Elmer/Caliper Twister II) and an incubator (Liconic STX40, Thermo Cytomat 2C450). The assay plates were prepared by addition of 50 nl per well of compound solution in 90% DMSO HummingBird nanodispenser (Zinsser Analytic). The assay was started by stepwise addition of 4.5 μL per well of bromo domain protein (50 mM HEPES, pH 7.5, 0.005% Tween20, 0.1% BSA, 50 mM NaCl, 45 nM His-Brd2(60-472) or 45 nM His-Brd3(20-477) or 45 nM His-Brd4(44-477) all proteins produced in-house) and 4.5 μL per well of peptide solution (50 mM HEPES, pH 7.5, 0.005% Tween20, 0.1% BSA, 50 mM NaCl, 60 nM acetyl-histone H4 (AcK 5, 8, 12, 16) (Biosyntan GmbH)). Reactions were incubated at 30° C. for 35 minutes. Subsequently 4.5 μL per well detection mix (50 mM HEPES, pH 7.5, 0.005% Tween20, 0.1% BSA, 50 mM NaCl, 3 nM Eu-labeled anti-His6 antibody, 21 nM streptavidin-allophycocyanin) were added. After minutes incubation at 30° C., plates were measured in a Perkin Elmer EnVision multilabel reader.
(§3) Test compounds were dissolved in DMSO (10 mM) and transferred into 1.4 mL flat bottom or V-shaped Matrix tubes carrying a unique 2D matrix. The stock solutions were stored at […] if not used immediately. For the test procedure the vials were defrosted and identified by a scanner whereby a working sheet was generated that guided the subsequent working steps. Compound dilutions were made in 96 well plates. This format enabled the assay of maximally […] at 8 concentrations (single points) including 4 reference compounds, if desired (known BET inhibitors from the prior art, for this and other assays of the type disclosed herein). The dilution protocol included the production of “pre-dilution plates”, “master plates” and “assay plates”.
(§4) Polypropylene 96-well plates were used as pre-dilution plates. […] All dilution steps were done on a HamiltonSTAR robot.
(§5) 30 μL of individual compound dilutions including standard compound and controls of the 4 “pre-dilution plates” were transferred into a 384-well “master plate” including the following concentrations 10000, […], 1000, 300, 100, 30, 10 and 3 μM, respectively in 90% of DMSO.
(§6) Identical “assay plates” were then prepared by pipetting 50 nL each of compound dilutions of the “master plates” into 384-well “assay plates” by means of a HummingBird 384-channel dispenser. These plates were used directly for the assay which was performed in a total volume of 13.55 μL.

[2] = molecular target: His-Brd3(20-477) (Homo sapiens (Human), UniProt Q15059); test: TR-FRET in-vitro binding assay for BRD3
Experimental: as §1, §2, §3, §4, §5, §6

[3] = molecular target: His-Brd2(60-472) (Homo sapiens (Human), UniProt P25440); test: TR-FRET in-vitro binding assay for BRD2
Experimental: as §1, §2, §3, §4, §5, §6

[4] = molecular target: His-CREBBP (1081-1197) bromodomain (Homo sapiens (Human), UniProt Q92793); test: AlphaScreen in-vitro binding assay for CREBBP
Experimental: AlphaScreen In-Vitro Binding Assay for CREBBP
In order to assess bromodomain selectivity, we set up a binding assay using the bromodomain encoded by the CREBBP gene. […] Reactions were incubated at 30° C. for 35 minutes. Subsequently 4.5 μL per well detection mix (50 mM HEPES, pH 7.5, 0.005% Tween20, 0.02% BSA, 150 mM NaCl, 45 μg/ml Ni-chelate acceptor beads, 45 μg/mL streptavidin-donor beads) (Perkin Elmer)) were added. After 60 minutes incubation at room temperature, plates were measured in a Perkin Elmer EnVision multilabel reader. IC50 values were determined from percent inhibition values at different compound concentrations by non-linear regression analysis.
as §3, §4
These plates were used directly for the assay which was performed in a total volume of 13.55 μL.

Chain of His-Brd3(20-477) (Q15059 20-477): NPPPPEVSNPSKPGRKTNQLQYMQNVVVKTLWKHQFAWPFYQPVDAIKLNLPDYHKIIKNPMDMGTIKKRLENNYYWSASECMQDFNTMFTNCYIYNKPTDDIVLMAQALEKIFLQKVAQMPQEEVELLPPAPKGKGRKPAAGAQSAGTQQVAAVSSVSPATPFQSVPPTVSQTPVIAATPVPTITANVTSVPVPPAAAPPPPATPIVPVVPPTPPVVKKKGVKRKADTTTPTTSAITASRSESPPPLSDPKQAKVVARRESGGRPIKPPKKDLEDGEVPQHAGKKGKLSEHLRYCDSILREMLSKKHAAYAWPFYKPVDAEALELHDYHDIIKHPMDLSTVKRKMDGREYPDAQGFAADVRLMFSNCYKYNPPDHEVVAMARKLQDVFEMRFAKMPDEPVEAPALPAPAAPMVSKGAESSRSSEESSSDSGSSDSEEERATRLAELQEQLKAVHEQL
Chain of His-Brd2(60-472) (P25440 60-472): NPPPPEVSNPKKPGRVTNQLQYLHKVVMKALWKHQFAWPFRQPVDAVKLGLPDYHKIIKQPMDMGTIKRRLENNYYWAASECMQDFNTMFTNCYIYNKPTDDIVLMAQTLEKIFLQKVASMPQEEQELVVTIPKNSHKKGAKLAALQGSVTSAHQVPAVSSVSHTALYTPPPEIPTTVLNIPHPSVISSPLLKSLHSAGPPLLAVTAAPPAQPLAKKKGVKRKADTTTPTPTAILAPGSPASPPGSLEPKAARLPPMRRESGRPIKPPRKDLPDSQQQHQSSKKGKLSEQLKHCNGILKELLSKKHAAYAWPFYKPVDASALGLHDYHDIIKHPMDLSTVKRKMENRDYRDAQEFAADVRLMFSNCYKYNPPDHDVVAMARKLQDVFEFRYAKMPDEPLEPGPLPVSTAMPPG
Chain of His-CREBBP (1081-1197) bromodomain (Q92793 1081-1197): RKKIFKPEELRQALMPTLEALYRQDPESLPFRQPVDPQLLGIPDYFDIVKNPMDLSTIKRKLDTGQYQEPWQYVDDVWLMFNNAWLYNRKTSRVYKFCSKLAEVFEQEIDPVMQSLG

IC50 [1] [nM]	IC50 [2] [nM]	IC50 [3] [nM]	IC50 [4] [nM]	Compound
120	91	78	–	Cc1cc(N2C(=O)c3nn(C4CC4)cc3C2c2ccc(Cl)cc2)cn(C)c1=O (stereo not shown) [Example 39, 4-(4-chlorophenyl)-2-cyclopropyl-5-(1,5-dimethyl-6-oxo-1,6-dihydropyridin-3-yl)-4,5-dihydropyrrolo[3,4-c]pyrazol-6(2H)-one]
660	890	1200	–	Cc1c2c(nn1C)C(=O)N(c1ccc(=O)n(C)n1)C2c1ccc(Cl)cc1 (stereo not shown) [Example 32, 4-(4-chlorophenyl)-2,3-dimethyl-5-(1-methyl-6-oxo-1,6-dihydropyridazin-3-yl)-4,5-dihydropyrrolo[3,4-c]pyrazol-6(2H)-one]
460	–	–	–	Cn1cc2c(n1)C(=O)N(c1cc(F)c(=O)n(C)c1)C2c1ccc(Cl)cc1 (stereo not shown) [Example 14, 4-(4-chlorophenyl)-5-(5-fluoro-1-methyl-6-oxo-1,6-dihydropyridin-3-yl)-2-methyl-4,5-dihydropyrrolo[3,4-c]pyrazol-6(2H)-one]
520	470	690	–	Cc1c2c(nn1C)C(=O)N(c1cc(F)c(=O)n(C)c1)C2c1ccc(Cl)cc1 (stereo not shown) [Example 31, 4-(4-chlorophenyl)-5-(5-fluoro-1-methyl-6-oxo-1,6-dihydropyridin-3-yl)-2,3-dimethyl-4,5-dihydropyrrolo[3,4-c]pyrazol-6(2H)-one]
–	> 6700	–	–	Cc1cc(N2C(=O)c3nn(C)cc3[C@@H]2c2ccc(Cl)cc2)cn(C)c1=O [Example 15, (S)-4-(4-chlorophenyl)-5-(1,5-dimethyl-6-oxo-1,6-dihydropyridin-3-yl)-2-methyl-4,5-dihydropyrrolo[3,4-c]pyrazol-6(2H)-one]
31000	25000	28000	–	Cc1cc(N2C(=O)c3nn(C)c(C)c3[C@@H]2c2ccc(Cl)cc2)cn(C)c1=O [Example 29, (S)-4-(4-chlorophenyl)-5-(1,5-dimethyl-6-oxo-1,6-dihydropyridin-3-yl)-2,3-dimethyl-4,5-dihydropyrrolo[3,4-c]pyrazol-6(2H)-one]
66	–	–	–	Cc1nn(C2CC2)c2c1C(c1ccc(Cl)cc1)N(c1cc(C)c(=O)n(C)c1)C2=O (racemic) [Example 23, 4-(4-chlorophenyl)-1-cyclopropyl-5-(1,5-dimethyl-6-oxo-1,6-dihydropyridin-3-yl)-3-methyl-4,5-dihydropyrrolo[3,4-c]pyrazol-6(1H)-one]
–	–	> 6700	> 5100	Cc1nn(C2CC2)c2c1[C@H](c1ccc(Cl)cc1)N(c1cc(Cl)c(=O)n(C)c1)C2=O [Example 50, (S)-5-(5-chloro-1-methyl-6-oxo-1,6-dihydropyridin-3-yl)-4-(4-chlorophenyl)-1-cyclopropyl-3-methyl-4,5-dihydropyrrolo[3,4-c]pyrazol-6(1H)-one]
–	–	> 6700	–	Cc1cc(N2C(=O)c3nn(C4CC4)c(C)c3[C@@H]2c2ccc(Cl)cc2)cn(C)c1=O [Example 22, (S)-4-(4-chlorophenyl)-2-cyclopropyl-5-(1,5-dimethyl-6-oxo-1,6-dihydropyridin-3-yl)-3-methyl-4,5-dihydropyrrolo[3,4-c]pyrazol-6(2H)-one]
31	–	–	–	Cc1cc(N2C(=O)c3nn(C)c(C)c3[C@H]2c2ccc(Cl)cc2)cn(C)c1=O [Example 30, (R)-4-(4-chlorophenyl)-5-(1,5-dimethyl-6-oxo-1,6-dihydropyridin-3-yl)-2,3-dimethyl-4,5-dihydropyrrolo[3,4-c]pyrazol-6(2H)-one]
130	150	180	–	Cc1cc(N2C(=O)c3nn(C)cc3C2c2ccc(Cl)cc2)cn(C)c1=O (stereo not shown) [Example 13, 4-(4-chlorophenyl)-5-(1,5-dimethyl-6-oxo-1,6-dihydropyridin-3-yl)-2-methyl-4,5-dihydropyrrolo[3,4-c]pyrazol-6(2H)-one]
260	250	270	–	Cc1c2c(nn1C)C(=O)N(c1ccc3nnc(C)n3c1)C2c1ccc(Cl)cc1 (stereo not shown) [Example 25, 4-(4-chlorophenyl)-2,3-dimethyl-5-(3-methyl-[1,2,4]triazolo[4,3-a]pyridin-6-yl)-4,5-dihydropyrrolo[3,4-c]pyrazol-6(2H)-one]

Further lines, the compound ahead of its results:

Compound	IC50 [1] [nM]	IC50 [2] [nM]	IC50 [3] [nM]	IC50 [4] [nM]
Cn1cc2c(n1)C(=O)N(c1cc(Cl)c(=O)n(C)c1)C2c1ccc(Cl)cc1 (stereo not shown) [Example 10, 5-(5-chloro-1-methyl-6-oxo-1,6-dihydropyridin-3-yl)-4-(4-chlorophenyl)-2-methyl-4,5-dihydropyrrolo[3,4-c]pyrazol-6(2H)-one]	150	130	150	–
Cc1c2c(nn1C)C(=O)N(c1ccc(=O)n(C)c1)C2c1ccc(Cl)cc1 (stereo not shown) [Example 3, 4-(4-chlorophenyl)-2,3-dimethyl-5-(1-methyl-6-oxo-1,6-dihydropyridin-3-yl)-4,5-dihydropyrrolo[3,4-c]pyrazol-6(2H)-one]	400	520	580	–
Cn1cc2c(n1)C(=O)N(c1cc(Cl)c(=O)n(C)c1)[C@H]2c1ccc(Cl)cc1 [Example 12, (S)-5-(5-chloro-1-methyl-6-oxo-1,6-dihydropyridin-3-yl)-4-(4-chlorophenyl)-2-methyl-4,5-dihydropyrrolo[3,4-c]pyrazol-6(2H)-one]	> 37000	> 37000	> 37000	–
COc1ccc(Cn2nc3c(c2C)C(c2ccc(Cl)cc2)N(c2ccc(=O)n(C)c2)C3=O)cc1 (stereo not shown) [Example 1, 4-(4-chlorophenyl)-2-(4-methoxybenzyl)-3-methyl-5-(1-methyl-6-oxo-1,6-dihydropyridin-3-yl)-4,5-dihydropyrrolo[3,4-c]pyrazol-6(2H)-one]	140	–	–	–
Cn1cc2c(n1)C(=O)N(c1cc(Cl)c(=O)n(C)c1)[C@@H]2c1ccc(Cl)cc1 [Example 11, (R)-5-(5-chloro-1-methyl-6-oxo-1,6-dihydropyridin-3-yl)-4-(4-chlorophenyl)-2-methyl-4,5-dihydropyrrolo[3,4-c]pyrazol-6(2H)-one]	130	100	140	–
Cc1c2c(nn1C)C(=O)N(c1cc(Cl)c(=O)n(C)c1)[C@H]2c1ccc(Cl)cc1 [Example 8, (S)-5-(5-chloro-1-methyl-6-oxo-1,6-dihydropyridin-3-yl)-4-(4-chlorophenyl)-2,3-dimethyl-4,5-dihydropyrrolo[3,4-c]pyrazol-6(2H)-one]	31000	27000	36000	–
Cc1[nH]nc2c1C(c1ccc(Cl)cc1)N(c1ccc(=O)n(C)c1)C2=O (stereo not shown) [Example 2, 4-(4-chlorophenyl)-3-methyl-5-(1-methyl-6-oxo-1,6-dihydropyridin-3-yl)-4,5-dihydropyrrolo[3,4-c]pyrazol-6(2H)-one]	170	–	–	–
Cc1nn(C)c2c1C(c1ccc(Cl)cc1)N(c1ccc(=O)n(C)c1)C2=O (stereo not shown) [Example 4, 4-(4-chlorophenyl)-1,3-dimethyl-5-(1-methyl-6-oxo-1,6-dihydropyridin-3-yl)-4,5-dihydropyrrolo[3,4-c]pyrazol-6(1H)-one]	230	–	–	–
Cn1cc(N2C(=O)c3n[nH]cc3C2c2ccc(Cl)cc2)cc(Cl)c1=O (stereo not shown) [Example 9, 5-(5-chloro-1-methyl-6-oxo-1,6-dihydropyridin-3-yl)-4-(4-chlorophenyl)-4,5-dihydropyrrolo[3,4-c]pyrazol-6(2H)-one]	170	180	210	–
